From US20150175585A1, “FUSED QUINONIC COMPOUNDS” (CENTRO ATLANTICO DEL MEDICAMENTO S.A (CEAMED, S.A.), priority 2012, published 2015) come the findings set out here.

For this test, the system named is STAT5. The test is described as follows: Epo induced STAT5 phosphorylation in HEL cells (Western immunoblotting). It counts as cell-based, human. The following applies: serum deprived HEL cells; 5 μM for 0.5-3 h or 0.5-10 μM for 3 h; Epo 10 units/ml 5 min. As for the experimental part:
FIG. 1. • A) Overnight serum deprived HEL cells were stimulated with Epo (10 units/ml) for 5, 10, 20, 30, 45 and 60 min. JAK2, pYJAK2, STAT5 and pYSTAT5 were detected using Western immunoblotting as described in methods. B) Overnight serum deprived HEL cells were pre-incubated with compound 4 (C4) (5 μM) for 0.5, 1, 2, and 3 h, and subsequently stimulated with 10 units/ml Epo for 5 min. JAK2, pYJAK2, STAT5 and pYSTAT5 were detected using Western immunoblotting as described in methods. C) Overnight serum deprived HEL cells were pre-incubated with C4 at increasing concentrations (0.5-10 μM) for 3 h, and subsequently stimulated with 10 units/ml Epo for 5 min. JAK2, pJAK2, STAT5 and pSTAT5 were detected using Western immunoblotting as described in methods. […]
For total protein extraction, cells were scraped with RIPA 1× lysis buffer (25 mM Tris-HCl pH 7.6, 150 mM NaCl, 1% NP-40, 1% sodium deoxycholate, 0.1% SDS, no. 89900, Thermo Scientific, Rockford, Ill., USA) supplemented with 1× protease and 1× phosphatase inhibitor cocktails (100× Halt™ Protease Inhibitor Cocktail, no. 87786 and 100× Halt™ Phosphatase Inhibitor Cocktail, no. 78420, both from Thermo Scientific, Rockford, Ill., USA). An aliquot of each extract was preserved for protein quantification by bicinchoninic acid assay (Pierce® BCA Protein Assay Kit, no. 23225, Thermo Scientific, Rockford, Ill., USA). […]
(In general: Immunoblotting shows a protein as a band on a membrane.)

`N#Cc1ccc(C2C3=C(CCCC3=O)OC3=C2C(=O)c2ccccc2C3=O)cc1` (stereo not shown) [Compound 4, 4-(1,6,11-trioxo-2,3,4,6,11,12-hexahydro-1H-benzo[b]xanthen-12-yl)benzonitrile]: the “Epo-induced phosphorylation of STAT5” value is “inhibits, in a time/dose dependent manner”.
